Experimental data: patent publication US20240316144A1, “PHARMACEUTICAL COMPOSITION AND METHOD FOR INHIBITING ANGIOGENESIS” (ZIH YUAN TANG Biotechnology Co, Ltd., priority 2023, published 2024)

Experiments:
[1] = system: laser-induced angiogenesis; experiment: Fundus fluorescein angiography (FFA) of laser-induced choroidal neovascularization in mice, vitreous injection; assay type: in vivo, C57BL/6 mice; conditions: for angiogenesis index (relative average fluorescence leakage ratio vs Day 0): vitreous injection, mean±S.E.M.; for FFA quantified values, difference to other groups: Eylea 40 μg/eye/μL, p<0.01 (FIG. 2D)
Method: (§1) Beauvericin (BEA), named GYT088 in this trail, was supplied by Shiyuantang Biotechnology Co. 5 mg of BEA (molecular weight 783.96) was dissolved in DMSO at a stock concentration of 50 mM, and then diluted to 100 μM with saline. Before injection, the sample was diluted to 1.6, 3.2, and 6.4 μM in saline, and then administered to the low, medium, and high-dose groups, which were equivalent to 1.28, 2.56, and 5.12 ng/eye, respectively, based on a vitreous volume of 4 μl in mice (wherein the injection volume is 1 μl); converted to the human doses of 1.28, 2.56, 5.12 μg/eye as the low, medium and high dose levels, respectively, based on a vitreous volume of 4-4.5 ml in human.
(§2) Male C57BL/6 mice from BioLASCO Taiwan CO., Ltd. at 7-8 weeks of age, with an average body weight of 17-20 g, were used in this study. The mice were housed in the Animal Room of the National Taipei Medical University for more than 5 days before the start of the experiment. The incubation temperature was set at 23±1° C., the humidity was set at 39˜43%, and the automated light control system maintained 12 hours of light and 12 hours of darkness. The feed was Rodent diet 5001 (Purina, MO, USA) and drinking water was supplied indefinitely.
(§3) After the adaptation period, the retina was cauterized with laser light (day 0), and the degree of retinal damage was confirmed by fundus photography (FP), fluorescein fundus angiography (FFA), and frequency-domain optical […] (SD-OCT) on the same day (FIG. 1). The mice were randomly divided into five groups and given vitreous injections of the corresponding drugs, including (1) control group, (2) positive control group: Eylea (40 μg/eye/μL), (3-5) GYT088 treatment groups at low-dose (1.28 ng/eye), medium-dose (2.56 ng/eye), and high-dose ([…]). Five mice in each group were clinically observed daily, and retinal injury repair was examined at Day 7 and Day 14.
Mice were deeply anesthetized and pupils were dilated. A Micron III retinal imaging microscope (Phoenix, San Ramon, CA, USA) was used to adjust the focal length, and the central socket of the mice was placed in the center of the fundus lens to capture fundus photography (FP), and then 10% sodium fluorescein solution was injected intraperitoneally, and retinal angiography was performed with a 520 nm filter to capture continuous images for analysis. After the administration of drugs, the FP, FFA, and SD-OCT results were observed once a week at Day 0 and recorded until Day 14. Sharp images were selected for analysis and imported into […] using ImageJ, and the software automatically quantified the pixel value and area of the fundus region by removing the background values. Due to differences in individual retinal structures, post-laser wound healing varies and overexposure of signals in the area may occur. If fluorescence leakage occurs outside of the location of direct laser damage, it is considered to be a phenomenon of fundus neovascularization. Therefore, the quantification was performed by randomly selecting three fixed areas of the fluorescence leakage area that were not laser-damaged areas.

[2] = system: retinal sublayer structure; experiment: SD-OCT damage score of the retinal sublayer structure after laser injury in mice, vitreous injection; assay type: in vivo, C57BL/6 mice; conditions: for SD-OCT quantified values, difference to other groups: p<0.01 (FIG. 3D)
Method: as §1, §2, §3
The OCT (Phoenix Research Laboratories, San Ramon, CA) imaging system used in this experiment is based on the principle of frequency-domain optical homodyne tomography. The computerized tomography (CT) scan was divided into three layers: the first layer was from the nerve fiber layer (NFL) to the inner nuclear layer (INL), the second layer was from the INL to the inner segment/outer segment (IS/OS), and the third layer was from the IS/OS to the retinal pigment epithelium (RPE). The damage was scored according to the retinal sublayer structure in a double-blind trail, and the mean value of the scores was taken as the index value of the damage after each score was made by 3 persons.

Molecule	angiogenesis index (relative average fluorescence leakage ratio vs Day 0) ([1]; Day 7, high-dose 5.12 ng/eye, p<0.05) [times]	angiogenesis index (relative average fluorescence leakage ratio vs Day 0) ([1]; Day 7, low-dose 1.28 ng/eye) [times]	angiogenesis index (relative average fluorescence leakage ratio vs Day 0) ([1]; Day 7, medium-dose 2.56 ng/eye) [times]	angiogenesis index (relative average fluorescence leakage ratio vs Day 0) ([1]; Day 14, high-dose 5.12 ng/eye, p<0.01) [times]	angiogenesis index (relative average fluorescence leakage ratio vs Day 0) ([1]; Day 14, low-dose 1.28 ng/eye) [times]	angiogenesis index (relative average fluorescence leakage ratio vs Day 0) ([1]; Day 14, medium-dose 2.56 ng/eye, p<0.01) [times]	damage score compared with control group ([2]; Day 14, high-dose 5.12 ng/eye, vitreous injection)	SD-OCT quantified values, difference to other groups ([2]; Day 14, low-dose 1.28 ng/eye)	SD-OCT quantified values, difference to other groups ([2]; Day 14, mid-dose 2.56 ng/eye)	FFA quantified values, difference to other groups ([1]; Day 7)	FFA quantified values, difference to other groups ([1]; Day 14)	damage score (scale 0-4) ([2]; Day 7, Eylea 40 μg/eye/μL, vitreous injection, control 1.38±0.17)	SD-OCT quantified values, difference to other groups ([2]; Day 14, Eylea 40 μg/eye/μL)
CC(C)[C@H]1OC(=O)[C@H](Cc2ccccc2)N(C)C(=O)[C@@H](C(C)C)OC(=O)[C@H](Cc2ccccc2)N(C)C(=O)[C@@H](C(C)C)OC(=O)[C@H](Cc2ccccc2)N(C)C1=O [GYT088, beauvericin]	1.53±0.17	1.92±0.21	1.59±0.22	1.63±0.16	2.46±0.18	1.79±0.17	significantly lower than control group	significant difference	significant difference				
Eylea: positive control group: Eylea (40 μg/eye/μL), vitreous injection [reference compound]										significant difference	significant difference	0.80±0.13	significant difference
